# Laboratory results reported in EP4810498A1, “MEDICATION FOR TREATING SEVERE MALARIA AND SYNTHESIS METHOD THEREFOR” (Institute of Chinese Materia Medica, China Academy of …, priority 2023, dated 2025).
# Read-outs that look alike come from different tables or passages of the source.
# Legend:
# [1] = test system: Plasmodium falciparum 3D7; assay: SYBR Green assay, growth inhibition of Plasmodium falciparum cultured in vitro; format: cell-based
# Description: Plasmodium falciparum in the ring stage was synchronized. Smearing was carried out and the infection rate was counted. The synchronized parasitized red blood cells, healthy red blood cells and mediums were matched in a reasonable ratio, resulting in an in vitro culture system of plasmodia (ring bodies, 2 to 4 hours-old) with a hematocrit of 2% and an infection rate of 1%. […] A1-A10 was paved with 25 µl of drugs (with 8 complex wells for each drug) and mixed evenly, and then diluted in multiple proportions (Ax-Hx). Except for A12-H12, 50 µL of a plasmodium culture solution was spread in all the other wells; and A12-H12 was spread with 50 µl of healthy red blood cells (in the medium with a hematocrit of 2%). […] 100 µl of a lysis buffer was added to each of the wells and put into a drawer to avoid light for 1 h.
# In this experiment, SYBR Green assay was used to determine the median inhibitory concentration (IC50) value of the drug for treating Plasmodium falciparum 3D7. Nonlinear regression was used to calculate the value by means of software graphpad prism 8.0 (the value was equal to average value plus or minus standard error), and a four-parameter logistic fitting curve was used. Each value in the curve was equal to average value plus or minus standard error in eight biological repetitive experiments.
# [2] = mixed solution with ligustrazine hydrochloride in 80% polyethylene glycol 400, dark environment at 40°C
# Description: 160.2 mg of Artesunazine was weighed and put into a penicillin bottle, 8 mL of a 80% polyethylene glycol 400 solution was added, and the Artesunazine was completely dissolved by ultrasonic treatment, resulting in about 20.25 mg/mL Artesunazine solution. Subsequently, the penicillin bottle filled with the solution was sealed, covered with aluminum foil paper for light avoidance treatment, and placed in a stability test box at 40°C; and 0.5 mL to 25 mL of the solution was sampled into volumetric flasks on days 0, 3, 7, and 10, respectively. After diluting with methanol and shaking well, the content of the Artesunazine was determined by an ultra performance liquid chromatography (UPLC) method.
# The UPLC determination conditions for the Artesunazine are as follows: Instrument: ultra performance liquid chromatography Waters ACQUITY UPLC, chromatographic column: ACQUITY UPLC HSS T3 Column (100 Å, 1.8 µm, 2.1 mm×100 mm), detection wavelength: 295 nm, mobile phase: acetonitrile-0.1% phosphoric acid water (35:65), flow rate: 0.3 ml/min, column temperature: 30°C, sample room temperature: 25°C, injection volume: 3 µL. […]
# [3] = test system: Plasmodium berghei ANKA strain; assay: Recurrence rate of cerebral malaria model mice (blood smear); format: in vivo, C57BL/6J mice; conditions: AS group (15.6 mg/kg)
# Text: (§1) Experimental study on the antimalarial activity of Artesunazine (Example Ia-1) in vitro and vivo. I. Protection of Artesunazine on mice infected by Plasmodium berghei ANKA strain. (I) Experimental materials: • 1. Animals: C57BL/6J, weighing 16-18 g, 10 in each group, 50 in total. • 2. Plasmodium strain: Plasmodium berghei ANKA strain, donated by Professor Zhao Ya of Air Force Medical University of the People's Liberation Army of China (The Fourth Military Medical University), was preserved in our laboratory by blood transmission or freezing. • 3. Drugs and preparation methods: Artesunazine and a positive control drug artesunate were dissolved in a mixed solvent of polyethylene glycol 400 (PEG400) and water (PEG400:water=4:1), serving as a preparation for immediate use. (II) Experimental methods • 1. Plasmodium resuscitation and passage: A Plasmodium berghei ANKA strain frozen in liquid nitrogen was taken out and placed in a water bath kettle at 37°C. After melting, it was immediately intraperitoneally inoculated into C57BL/6J mice (0.2 mL/mouse). When the infection rate of the breeding mice reached 15-30%, their eyeballs were removed and blood was collected in an anticoagulant tube. After shaking well, the blood was transmitted to offspring C57BL/6J mice with a 1 mL syringe at an injection dose of 0.2 mL/mouse. • 2. Plasmodium inoculation: C57BL/6J mice were weighed and fed adaptively. When the infection rate of offspring C57BL/6J mice reached 15-30%, the total number of red blood cells and the number of pRBCs were counted after their eyeballs were removed and blood was collected. The blood was injected intraperitoneally into model group C57BL/6J mice at an injection dose of 0.2 mL (including 1×10^7 pRBCs) per mouse, which was the 0th day (D0) of inoculation. • 3. Animal grouping: After inoculation, the experimental mice were randomly divided into 5 groups, including a model (M) group, high, medium and low dose Artesunazine groups (i.e., 40 mg/kg, 20 mg/kg, and 10 mg/kg Artesunazine), and an artesunate group (i.e., 15.6 mg/kg AS, clinically equivalent dose). The dosage of the medium dose Artesunazine group (20mg/kg Artesunazine) is equivalent to that of the artesunate group (15.6 mg/kg). There are 10 mice in each group, a total of 50 mice. • 4. Determination of survival rate From the 0th day of inoculation, the death of mice was observed every day for 28 consecutive days. Survival rate = (Number of surviving mice)/(Number of experimental mice) × 100% [formula] • 5. Determination of recurrence rate After inoculation, the mice were randomly divided into groups and administered via nasal drip for 3 h. After four consecutive days of administration, blood smear test began at D4. A small drop of blood was taken from the tail tip of a mouse and dropped onto a glass slide. The blood drop was pushed to one end at a certain angle with the edge of another glass slide to make a thin blood film with appropriate thickness. After the thin blood film was air-dried, it was fixed with methanol and placed until completely air-dried. After a Giemsa stain solution was diluted at a ratio of 1:9 for staining (completely covering the fixed thin blood film) for 20 min, the thin blood film was rinsed under a faucet, and the water on the surface of the film was quickly absorbed with filter paper. A drop of cedar oil was dropped onto a glass slide for examination under a 100x oil microscope to count the number of parasitized red blood cells contained in 1000 red blood cells. The mouse recurrence rate was calculated by the ratio of the number of mice with recurrence to the total number of mice. Recurrence rate = (Number of mice with recurrence)/(Number of experimental mice) × 100% [formula] • 6. RMCBS score determination A rapid mouse coma behavior scale (RMCBS) was used to evaluate the neurological function of experimental mice. […]
# [4] = test system: Plasmodium berghei ANKA strain; assay: Body weight of cerebral malaria model mice; format: in vivo, C57BL/6J mice; conditions: AS group (15.6 mg/kg), at the end of the observation; in g (unit assumed)
# Text: as §1, with “After four consecutive days of administration, blood smear test began at D4. A small drop of blood was taken from the tail tip of a mouse and dropped onto a glass slide. The blood drop was pushed to one end at a certain angle with the edge of another glass slide to make a thin blood film with appropriate thickness. After the thin blood film was air-dried, it was fixed with methanol and placed until completely air-dried. After a Giemsa stain solution was diluted at a ratio of 1:9 for staining (completely covering the fixed thin blood film) for 20 min, the thin blood film was rinsed under a faucet, and the water on the surface of the film was quickly absorbed with filter paper. A drop of cedar oil was dropped onto a glass slide for examination under a 100x oil microscope to count the number of parasitized red blood cells contained in 1000 red blood cells.” left out, “mice.” for “mice. Recurrence rate = (Number of mice with recurrence)/(Number of experimental mice) × 100% [formula] • 6. RMCBS score determination A rapid mouse coma behavior scale (RMCBS) was used to evaluate the neurological function of experimental mice.”
# [5] = test system: Plasmodium berghei ANKA strain; assay: Rapid mouse coma behavior scale (RMCBS) score of cerebral malaria model mice; format: in vivo, C57BL/6J mice; conditions: AS group (15.6 mg/kg), at the end point of observation; total of 20 points
# Text: as §1, with “After four consecutive days of administration, blood smear test began at D4. A small drop of blood was taken from the tail tip of a mouse and dropped onto a glass slide. The blood drop was pushed to one end at a certain angle with the edge of another glass slide to make a thin blood film with appropriate thickness. After the thin blood film was air-dried, it was fixed with methanol and placed until completely air-dried. After a Giemsa stain solution was diluted at a ratio of 1:9 for staining (completely covering the fixed thin blood film) for 20 min, the thin blood film was rinsed under a faucet, and the water on the surface of the film was quickly absorbed with filter paper. A drop of cedar oil was dropped onto a glass slide for examination under a 100x oil microscope to count the number of parasitized red blood cells contained in 1000 red blood cells.” left out, “mice.” for “mice. Recurrence rate = (Number of mice with recurrence)/(Number of experimental mice) × 100% [formula] • 6. RMCBS score determination A rapid mouse coma behavior scale (RMCBS) was used to evaluate the neurological function of experimental mice.”
# [6] = test system: Plasmodium berghei ANKA strain; assay: Survival rate of cerebral malaria model mice; format: in vivo, C57BL/6J mice; conditions: 15.6 mg/kg AS, nasal drip, four consecutive days; 28 days of observation
# Text: as §1, with “After four consecutive days of administration, blood smear test began at D4. A small drop of blood was taken from the tail tip of a mouse and dropped onto a glass slide. The blood drop was pushed to one end at a certain angle with the edge of another glass slide to make a thin blood film with appropriate thickness. After the thin blood film was air-dried, it was fixed with methanol and placed until completely air-dried. After a Giemsa stain solution was diluted at a ratio of 1:9 for staining (completely covering the fixed thin blood film) for 20 min, the thin blood film was rinsed under a faucet, and the water on the surface of the film was quickly absorbed with filter paper. A drop of cedar oil was dropped onto a glass slide for examination under a 100x oil microscope to count the number of parasitized red blood cells contained in 1000 red blood cells.” left out, “mice.” for “mice. Recurrence rate = (Number of mice with recurrence)/(Number of experimental mice) × 100% [formula] • 6. RMCBS score determination A rapid mouse coma behavior scale (RMCBS) was used to evaluate the neurological function of experimental mice.”
# [7] = Plasmodium falciparum, 3D7, 72 h
structure (smiles),measurement,setting,value
"Cc1nc(C)c(COCCOC2OC3OC4(C)CCC5C(C)CCC(C2C)C35OO4)nc1C [Compound Ia-8, 2,3,5-trimethyl-6-[(2-(((3R, 5aS, 6R, 9R, 12R, 12aR)-3,6,9-trimethylbicyclo [3.2.1]heptane-12H-3, 12-epoxide [1, 2]dioxacycloheptane [4,3-i]isochromene-10-yl)oxy)ethoxy)methyl] pyrazine]",IC50,"[1]; Plasmodium falciparum standard strain 3D7, cultured for 72 h, read-out: IC50",0.107 µM
"Cc1nc(C)c(COC(=O)C2CCN(CC(=O)OC3OC4OC5(C)CCC6C(C)CCC(C3C)C46OO5)CC2)nc1C [Compound Ia-9, (3,5,6-trimethylpyrazine-2-yl) methyl 1-(2-oxy-2-(((3R, 5aS, 6R, 9R, 10S, 12R, 12aR)-3,6,9-trimethyldecahydro-12H-3, 12-epoxy [1, 2]dioxacycloheptane-10-yl)oxy)ethyl) piperidine-4-formate]",IC50,[1]; [7],0.0327 µM
"C[C@@H]1CC[C@H]2[C@@H](C)C(=O)O[C@@H]3O[C@@]4(C)CC[C@@H]1[C@]32OO4 [artemisinin, reference compound]",IC50,"[1]; Plasmodium falciparum, 3D7, standard antimalarial drug given for comparison, source of the value not stated, read-out: IC50",~0.0118 µM
"C[C@H]1[C@H](OC(=O)CCC(=O)O)O[C@@H]2O[C@@]3(C)CC[C@H]4[C@H](C)CC[C@@H]1[C@@]24OO3 [artesunate, dihydroartemisinin-12-α-succinate, reference compound]",content of artesunate,[2],rapidly decreased
same,Recurrence rate (%) D4,[3]; D4,10%
same,Recurrence rate (%) D7,[3]; D7,90%
same,Recurrence rate (%) D28,[3]; D28,100%
same,body weight,[4],15.41±0.50
same,RMCBS score,[5],16.22±0.55 points
same,survival rate,[6],40%
same,IC50,[1]; [7],0.00882 µM
"CCN(CC)CCCC(C)Nc1ccnc2cc(Cl)ccc12 (stereo not shown) [chloroquine, reference compound]",IC50,"[1]; Plasmodium falciparum, 3D7",~0.00236 µM
"OC(c1cc(C(F)(F)F)nc2c(C(F)(F)F)cccc12)C1CCCCN1 (stereo not shown) [mefloquine, reference compound]",IC50,"[1]; Plasmodium falciparum, 3D7, standard antimalarial drugs given for comparison, source of the values not stated, read-out: IC50",~0.00396 µM
